The values that follow come from US20150218212A1, “FLUORINATED EPOXYKETONE-BASED TETRAPEPTIDE COMPOUNDS AND USES THEREOF AS PROTEASOME INHIBITORS” (FLUORINOV PHARMA INC., priority 2012, published 2015).

Assay type in all cases: cell-based, human
For one test, the system named is SW-620. The experiment in a line: NCI screening panel, SW-620 (Colon Cancer). As to the method: (§1) Representative compounds of Formula I were screened using the National Cancer Institute (NCI) screening panel, which consists of a panel of human tumor cell lines, representing leukemia, melanoma, and cancers of the lung, colon, ovary, breast, prostate and renal system.
(§2) After 24 h, two plates of each cell line are fixed in situ with TCA, to represent a measurement of the cell population for each cell line at the time of drug addition (Tz). Experimental drugs are solubilised in dimethyl sulfoxide at 400-fold the desired final maximum test concentration and stored frozen prior to use. At the time of drug addition, an aliquot of frozen concentrate is thawed and diluted to twice the desired final maximum test concentration with complete medium containing 50 μg/mL gentamicin. Additional four, 10-fold or ½ log serial dilutions are made to provide a total of five drug concentrations plus control. Aliquots of 100 μl of these different drug dilutions are added to the appropriate microtiter wells already containing 100 μl of medium, resulting in the required final drug concentrations.
(§3) Following drug addition, the plates are incubated for an additional 48 h at 37° C., 5% CO2, 95% air, and 100% relative humidity. For adherent cells, the assay is terminated by the addition of cold TCA (trichloroacetic acid). Cells are fixed in situ by the gentle addition of 50 μl of cold 50% (w/v) TCA (final concentration, 10% TCA) and incubated for 60 minutes at 4° C. The supernatant is discarded, and the plates are washed five times with tap water and air dried. Sulforhodamine B (SRB) solution (100 μl) at 0.4% (w/v) in 1% acetic acid is added to each well, and plates are incubated for 10 minutes at room temperature. After staining, unbound dye is removed by washing five times with 1% acetic acid and the plates are air dried. Bound stain is subsequently solubilised with 10 mM trizma base, and the absorbance is read on an automated plate reader at a wavelength of 515 nm. For suspension cells, the methodology is the same except that the assay is terminated by fixing settled cells at the bottom of the wells by gently adding 50 μl of 80% TCA (final concentration, 16% TCA). Using the seven absorbance measurements [time zero, (Tz), control growth, (C), and test growth in the presence of drug at the five concentration levels (Ti)], the percentage growth is calculated at each of the drug concentrations levels. Percentage growth inhibition is calculated as: [(Ti−Tz)/(C−Tz)]×100 for concentrations for which Ti>/=Tz and [(Ti−Tz)/Tz]×100 for concentrations for which Ti<Tz.
(§4) Three dose response parameters are calculated for each experimental agent. Growth inhibition of 50% (GI50) is calculated from [(Ti−Tz)/(C−Tz)]×100=50, which is the drug concentration resulting in a 50% reduction in the net protein increase (as measured by SRB staining) in control cells during the drug incubation. The drug concentration resulting in total growth inhibition (TGI) is calculated from Ti=Tz. The LC50 (concentration of drug resulting in a 50% reduction in the measured protein at the end of the drug treatment as compared to that at the beginning) indicating a net loss of cells following treatment is calculated from [(Ti−Tz)/Tz]×100=−50. Values are calculated for each of these three parameters if the level of activity is reached. However, if the effect is not reached or is exceeded, the value for that parameter is expressed as greater or less than the maximum or minimum concentration tested.

The test system of the next test is SF-539. The experiment in a line: NCI screening panel, SF-539 (CNS Cancer). As for the experimental part:
as §1, §2, §3, §4

For a further test, the system named is OVCAR-8. Put plainly: NCI screening panel, OVCAR-8 (Ovarian Cancer). As for the experimental part: as §1, §2, §3, §4
The subject of the next test is HL-60(TB). Put plainly: NCI screening panel, HL-60(TB) (Leukemia). As for the experimental part:
as §1, §2, §3, §4

Another test has as its system NCI-H460. Put plainly: NCI screening panel, NCI-H460 (Non-Small Cell Lung Cancer). As to the method:
as §1, §2, §3, §4

Another test deals with MDA-MB-231/ATCC. Put plainly: NCI screening panel, MDA-MB-231/ATCC (Breast Cancer). As to the method: as §1, §2, §3, §4
Another test relates to IGROV1. Put plainly: NCI screening panel, IGROV1 (Ovarian Cancer). As for the experimental part:
as §1, §2, §3, §4

In the next test the test system is HOP-62. Put plainly: NCI screening panel, HOP-62 (Non-Small Cell Lung Cancer). As for the experimental part:
as §1, §2, §3, §4

Turning to `CC(C)C[C@H](NC(=O)[C@H](COC(F)F)NC(=O)[C@H](COC(F)F)NC(=O)[C@H](CCc1ccccc1)NC(=O)CN1CCOCC1)C(=O)[C@@]1(C)CO1` [Example 7, (2S)-N-[(1S)-1-(difluoromethoxymethyl)-2-[[(1S)-1-(difluoromethoxymethyl)-2-[[(1S)-3-methyl-1-[(2R)-2-methyloxirane-2-carbo-nyl]butyl]amino]-2-oxo-ethyl]amino]-2-oxo-ethyl]-2-[(2-morpholinoacetyl)amino]-4-phenyl-butanamide], the Log10GI50 in the test with SW-620 is recorded as −7.61; with SF-539 it was −7.74; with OVCAR-8, −6.94; with HL-60(TB), −7.46; in the test with NCI-H460, −7.28; in the test on MDA-MB-231/ATCC it was −7.64. The Log10GI50 in the test with IGROV1 was −7.49; with HOP-62 it was −7.63. Further, the Log10LC50 with SW-620 is over −4.00; with SF-539, −4.26; with OVCAR-8, over −4.00; in the test with HL-60(TB), over −4.00; in the test with NCI-H460, over −4.00; with MDA-MB-231/ATCC, −4.92. Moreover, the Log10LC50 with IGROV1 and in the test on HOP-62 was over −4.00 throughout. In addition, the Log10TGI50 is −5.63 in the test with SW-620; −7.20 in the test on SF-539; −5.93 in the test with OVCAR-8; −6.48 in the test on HL-60(TB); −6.50 in the test on NCI-H460; −7.14 in the test on MDA-MB-231/ATCC. The Log10TGI50 with IGROV1 is reported as −5.55; in the test on HOP-62 it was −7.00.

With `CC(C)C[C@H](NC(=O)[C@H](Cc1ccccc1)NC(=O)[C@H](COC(F)F)NC(=O)[C@H](COC(F)F)NC(=O)CN1CCOCC1)C(=O)[C@@]1(C)CO1` [Example 11, (2S)-2-[[(2S)-3-(difluoromethoxy)-2-[[(2S)-3-(difluoromethoxy)-2-[(2-morpholinoacetyl)-amino]propanoyl]amino]propanoyl]amino]-N-[(1S)-3-methyl-1-[(2R)-2-methyloxirane-2-carbonyl]butyl]-3-phenyl-propanamide], the Log10GI50 is given as −7.63 with SW-620; −7.66 with SF-539; −6.94 with OVCAR-8; −7.46 in the test on HL-60(TB); −7.29 with NCI-H460; −7.56 in the test on MDA-MB-231/ATCC. Besides, the Log10GI50 is reported as −7.38 in the test on IGROV1 and −7.56 in the test with HOP-62. Also, the Log10LC50 in the test with SW-620 was over −4.00; in the test on SF-539, −5.48; with OVCAR-8 it was over −4.00; with HL-60(TB) it was over −4.00; in the test with NCI-H460 it was −4.85; in the test on MDA-MB-231/ATCC it was −4.39. The Log10LC50 with IGROV1 and with HOP-62 was over −4.00 each time. Also, the Log10TGI50 in the test on SW-620 is given as −5.97; in the test with SF-539, −7.21; with OVCAR-8, over −4.00; with HL-60(TB) it was −6.42; in the test on NCI-H460, −6.51; in the test with MDA-MB-231/ATCC, −6.94. Further, the Log10TGI50 is reported as −4.36 with IGROV1 and −4.94 in the test on HOP-62.

Turning to `CC(C)C[C@H](NC(=O)[C@H](COC(F)F)NC(=O)[C@H](COC(F)F)NC(=O)[C@H](COC(F)F)NC(=O)CN1CCOCC1)C(=O)[C@@]1(C)CO1` [Example 17, (2S)-3-(difluoromethoxy)-N-[(1S)-1-(difluoromethoxymethyl)-2-[[(1S)-1-(difluoro-methoxymethyl)-2-[[(1S)-3-methyl-1-[(2R)-2-methyloxirane-2-carbonyl]butyl]amino]-2-oxo-ethyl]amino]-2-oxo-ethyl]-2-[(2-mor-pholinoacetyl)amino]-propanamide], the Log10GI50 is −7.08 in the test with SW-620; −7.38 in the test with SF-539; −6.31 with OVCAR-8; −6.70 in the test with HL-60(TB); −6.50 in the test with NCI-H460; −6.87 with MDA-MB-231/ATCC. Moreover, the Log10GI50 was −6.87 in the test with IGROV1 and −6.82 in the test on HOP-62. For the same compound, the Log10LC50 in the test on SW-620 is given as over −4.00; in the test with OVCAR-8 it was over −4.00; in the test on HL-60(TB), over −4.00; in the test on NCI-H460 it was −4.60; in the test on MDA-MB-231/ATCC, −4.25; in the test with IGROV1, over −4.00. Besides, the Log10LC50 with HOP-62 is reported as over −4.00. Also, the Log10TGI50 in the test on SW-620 is −4.95; in the test with SF-539 it was −6.67; in the test with OVCAR-8, −5.25; with HL-60(TB) it was −5.87; with NCI-H460 it was −5.88; in the test on MDA-MB-231/ATCC, −6.10. In addition, the figures for the Log10TGI50 in the test with IGROV1 and with HOP-62 were −5.82 and over −4.00, respectively.
